Target: Kv1.3 (Homo sapiens (Human), UniProt P22001)
Assay: Patch-clamp assay for inhibitory activity on Kv1.3 (whole cell patch-clamp recording)
Type: cell-based
Settings: n≥2 per concentration
Procedure: Patch-Clamp Assay for Inhibitory Activity on Kv1.3
For a description of a Kv1.3 patch-clamp assay, see Grissmer et al., Mol. Pharmacol. 1994, 45, 1227; whole cell patch-clamp recording was performed with n≥2 individual experiments at each compound concentration using different cells. Three or more different concentrations were determined per dose response curve.

Sequence of Kv1.3 (P22001 whole entry): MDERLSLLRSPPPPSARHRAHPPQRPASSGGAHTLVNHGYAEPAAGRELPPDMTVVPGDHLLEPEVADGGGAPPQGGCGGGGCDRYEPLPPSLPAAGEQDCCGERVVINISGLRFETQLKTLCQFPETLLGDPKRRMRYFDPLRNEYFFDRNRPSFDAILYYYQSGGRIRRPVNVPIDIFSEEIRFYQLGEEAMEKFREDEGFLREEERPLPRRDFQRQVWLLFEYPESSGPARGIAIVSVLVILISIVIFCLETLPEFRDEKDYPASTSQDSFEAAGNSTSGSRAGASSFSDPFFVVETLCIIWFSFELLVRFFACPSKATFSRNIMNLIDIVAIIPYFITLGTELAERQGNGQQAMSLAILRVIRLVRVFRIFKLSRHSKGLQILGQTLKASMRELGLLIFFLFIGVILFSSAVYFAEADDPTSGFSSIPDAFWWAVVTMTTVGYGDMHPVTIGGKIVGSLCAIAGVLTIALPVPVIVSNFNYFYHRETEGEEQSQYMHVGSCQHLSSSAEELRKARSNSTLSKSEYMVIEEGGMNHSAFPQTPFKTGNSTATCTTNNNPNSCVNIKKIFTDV

SMILES | IC50
Cc1c(-c2ccccc2)c2cc3c(C4CC4)coc3c(C)c2oc1=O [Example 42, 3-cyclopropyl-6,9-dimethyl-5-phenyl-7H-furo[3,2-g]chromen-7-one] | 0.501 to 1.5 µM
Cc1c(-c2ccccc2Cl)c2cc3c(C)coc3c(C)c2n(C)c1=O [Example 60, 5-(2-chlorophenyl)-3,6,8,9-tetramethylfuro[3,2-g]quinolin-7(8H)-one] | ≤ 0.5 µM
Cc1coc2c(C)c3[nH]c(=O)c(Br)c(-c4ccccc4)c3cc12 [Example 26, 6-bromo-3,9-dimethyl-5-phenylfuro[3,2-g]quinolin-7(8H)-one] | ≤ 0.5 µM
Cc1c(-c2cccnc2)c2cc3c(C)coc3c(C)c2n(C)c1=O [Example 55, 3,6,8,9-tetramethyl-5-(pyridin-3-yl)furo[3,2-g]quinolin-7(8H)-one] | 0.501 to 1.5 µM
COc1cccc(-c2c(C)c(=O)oc3c(C)c4occ(C)c4cc23)c1 [Example 6, 5-(3-methoxyphenyl)-3,6,9-trimethyl-7H-furo[3,2-g]chromen-7-one] | 0.501 to 1.5 µM
Cc1nc2cc3c(-c4ccccc4)c(C)c(=O)oc3c(C)c2o1 [Example 48, 2,4,7-trimethyl-8-phenyl-6H-chromeno [6,7-d]oxazol-6-one] | 0.501 to 1.5 µM
Cc1c(-c2ccccc2F)c2cc3c(C)coc3c(C)c2oc1=O [Example 5, 5-(2-fluorophenyl)-3,6,9-trimethyl-7H-furo[3,2-g]chromen-7-one] | ≤ 0.5 µM
Cc1c(C#N)oc2c(C)c3oc(=O)cc(-c4ccccc4)c3cc12 [Example 13, 3,9-dimethyl-7-oxo-5-phenyl-7H-furo[3,2-g]chromene-2-carbonitrile] | 1.5 to 3 µM
Cc1ccccc1-c1c(Br)c(=O)[nH]c2c(C)c3occ(C)c3cc12 [Example 28, 6-bromo-3,9-dimethyl-5-(o-tolyl)furo[3,2-g]quinolin-7(8H)-one] | 0.501 to 1.5 µM
Cc1ccccc1-c1cc(=O)[nH]c2c(C)c3occ(C)c3cc12 [Example 29, 3,9-dimethyl-5-(o-tolyl)furo[3,2-g]quinolin-7(8H)-one] | 1.5 to 3 µM
COc1cccc(-c2cc(=O)oc3c(C)c4occ(C)c4cc23)c1 [Example 2, 5-(3-methoxyphenyl)-3,9-dimethyl-7H-furo[3,2-g]chromen-7-one] | 1.5 to 3 µM
Cc1cccc(-c2cc(=O)oc3cc4occ(C)c4cc23)c1 [Example 18, 3-methyl-5-(m-tolyl)-7H-furo[3,2-g]chromen-7-one] | 0.501 to 1.5 µM
Cc1coc2c(C)c3oc(=O)cc(-c4ccccc4Cl)c3cc12 [Example 3, 5-(2-chlorophenyl)-3,9-dimethyl-7H-furo[3,2-g]chromen-7-one] | 1.5 to 3 µM
Cc1coc2c(C)c3oc(=O)cc(-c4ccccn4)c3cc12 [Example 57, 3,9-dimethyl-5-(pyridin-2-yl)-7H-furo[3,2-g]chromen-7-one] | 1.5 to 3 µM
CNCc1nc2cc3c(-c4ccccc4)cc(=O)oc3c(C)c2o1 [Example 39, 4-methyl-2-((methylamino)methyl)-8-phenyl-6H-chromeno[6,7-d]oxazol-6-one] | 1.5 to 3 µM
Cc1c(-c2ccccc2)c2cc3c(C)noc3c(C)c2[nH]c1=O [Example 36, 3,6,9-trimethyl-5-phenylisoxazolo[4,5-g]quinolin-7(8H)-one] | ≤ 0.5 µM
Cc1ccccc1-c1c(C)c(=O)n(C)c2c(C)c3occ(C)c3cc12 [Example 59, 3,6,8,9-tetramethyl-5-(o-tolyl)furo[3,2-g]quinolin-7(8H)-one] | 0.501 to 1.5 µM
Cc1c2ocnc2cc2c(-c3ccccc3)cc(=O)oc12 [Example 47, 4-methyl-8-phenyl-6H-chromeno[6,7-d]oxazol-6-one] | 1.5 to 3 µM
Cc1coc2c(C)c3oc(=O)cc(-c4cccnc4)c3cc12 [Example 44, 3,9-dimethyl-5-(pyridin-3-yl)-7H-furo[3,2-g]chromen-7-one] | 1.5 to 3 µM
Cc1noc2c(C)c3oc(=O)cc(-c4ccccc4)c3cc12 [Example 50, 3,9-dimethyl-5-phenyl-7H-chromeno[6,7-d]isoxazol-7-one] | 1.5 to 3 µM
COc1cccc(-c2cc(=O)oc3cc4occ(C)c4cc23)c1 [Example 20, 5-(3-methoxyphenyl)-3-methyl-7H-furo[3,2-g]chromen-7-one] | 0.501 to 1.5 µM
Cc1c(-c2ccccc2)c2cc3c(C)noc3c(C)c2n(C)c1=O [Example 52, 3,6,8,9-tetramethyl-5-phenylisoxazolo[4,5-g]quinolin-7(8H)-one] | 0.501 to 1.5 µM
Cc1coc2c(C)c3c(cc12)c(-c1ccccc1)cc(=O)n3C [Example 32, 3,8,9-trimethyl-5-phenylfuro[3,2-g]quinolin-7(8H)-one] | 1.5 to 3 µM

SMILES | IC50
Cc1c(CN(C)C)oc2c(C)c3oc(=O)cc(-c4ccccc4)c3cc12 [Example 15, 2-((dimethylamino)methyl)-3,9-dimethyl-5-phenyl-7H-furo[3,2-g]chromen-7-one] | 1.5 to 3 µM
Cc1noc2c(C)c3[nH]c(=O)cc(-c4ccccc4)c3cc12 [Example 51, 3,9-dimethyl-5-phenylisoxazolo[4,5-g]quinolin-7(8H)-one] | 0.501 to 1.5 µM
Cc1ccccc1-c1cc(=O)oc2cc3occ(C)c3cc12 [Example 17, 3-methyl-5-(o-tolyl)-7H-furo[3,2-g]chromen-7-one] | 0.501 to 1.5 µM
Cc1coc2nc3oc(=O)cc(-c4ccccc4)c3cc12 [Example 24, 3-methyl-5-phenyl-7H-furo[2,3-b]pyrano[3,2-e]pyridin-7-one] | 0.501 to 1.5 µM
Cc1c(-c2ccccc2)c2cc3c(C)c(CN(C)C)oc3c(C)c2oc1=O [Example 46, 2-((dimethylamino)methyl)-3,6,9-trimethyl-5-phenyl-7H-furo[3,2-g]chromen-7-one] | 1.5 to 3 µM
Cc1coc2cc3oc(=O)cc(-c4ccccc4Cl)c3cc12 [Example 21, 5-(2-chlorophenyl)-3-methyl-7H-furo[3,2-g]chromen-7-one] | 0.501 to 1.5 µM
Cc1coc2c(C)c3c(cc12)c(-c1ccccc1)c(Br)c(=O)n3C [Example 33, 6-bromo-3,8,9-trimethyl-5-phenylfuro[3,2-g]quinolin-7(8H)-one] | ≤ 0.5 µM
Cc1c(-c2ccccc2)c2cc3c(C)noc3c(C)c2oc1=O [Example 35, 3,6,9-trimethyl-5-phenyl-7H-chromeno[6,7-d]isoxazol-7-one] | 0.501 to 1.5 µM
COc1ccccc1-c1cc(=O)oc2cc3occ(C)c3cc12 [Example 19, 5-(2-methoxyphenyl)-3-methyl-7H-furo[3,2-g]chromen-7-one] | 0.501 to 1.5 µM
Cc1c(-c2cccnc2)c2cc3c(C)noc3c(C)c2n(C)c1=O [Example 56, 3,6,8,9-tetramethyl-5-(pyridin-3-yl)isoxazolo[4,5-g]quinolin-7(8H)-one] | 1.5 to 3 µM
Cc1coc2c(C)c3oc(=O)cc(-c4ccccc4F)c3cc12 [Example 8, 5-(2-fluorophenyl)-3,9-dimethyl-7H-furo[3,2-g]chromen-7-one] | ≤ 0.5 µM
Cc1coc2c(C)c3oc(=O)cc(-c4cccc(C(F)(F)F)c4)c3cc12 [Example 4, 3,9-dimethyl-5-(3-(trifluoromethyl)phenyl)-7H-furo[3,2-g]chromen-7-one] | 1.5 to 3 µM
COc1ncccc1-c1c(C)c(=O)n(C)c2c(C)c3occ(C)c3cc12 [Example 64, 5-(2-methoxypyridin-3-yl)-3,6,8,9-tetramethylfuro[3,2-g]quinolin-7(8H)-one] | 1.5 to 3 µM
Cc1c(-c2ccccc2F)c2cc3c(C)coc3c(C)c2n(C)c1=O [Example 61, 5-(2-fluorophenyl)-3,6,8,9-tetramethylfuro[3,2-g]quinolin-7(8H)-one] | ≤ 0.5 µM
Cc1c(N2CCOCC2)oc2c(C)c3oc(=O)cc(-c4ccccc4)c3cc12 [Example 12, 3,9-dimethyl-2-morpholino-5-phenyl-7H-furo[3,2-g]chromen-7-one] | 1.5 to 3 µM
Cc1coc2cc3oc(=O)cc(-c4cccc(Cl)c4)c3cc12 [Example 22, 5-(3-chlorophenyl)-3-methyl-7H-furo[3,2-g]chromen-7-one] | 0.501 to 1.5 µM
Cc1c(CN2CCOCC2)oc2c(C)c3oc(=O)cc(-c4ccccc4)c3cc12 [Example 14, 3,9-dimethyl-2-(morpholinomethyl)-5-phenyl-7H-furo[3,2-g]chromen-7-one] | 1.5 to 3 µM
COc1c2occ(C)c2cc2c(-c3ccccc3)cc(=O)oc12 [Example 23, 9-methoxy-3-methyl-5-phenyl-7H-furo[3,2-g]chromen-7-one] | 1.5 to 3 µM
Cc1ccccc1-c1cc(=O)oc2c(C)c3occ(C)c3cc12 [Example 58, 3,9-dimethyl-5-(o-tolyl)-7H-furo[3,2-g]chromen-7-one] | 0.501 to 1.5 µM
Cc1nc2cc3c(-c4ccccc4)cc(=O)oc3c(C)c2o1 [Example 38, 2,4-dimethyl-8-phenyl-6H-chromeno[6,7-d]oxazol-6-one] | 0.501 to 1.5 µM
COc1ccncc1-c1c(C)c(=O)oc2c(C)c3occ(C)c3cc12 [Example 63, 5-(4-methoxypyridin-3-yl)-3,6,9-trimethyl-7H-furo[3,2-g]chromen-7-one] | 1.5 to 3 µM
COc1ncccc1-c1c(C)c(=O)oc2c(C)c3occ(C)c3cc12 [Example 62, 5-(2-methoxypyridin-3-yl)-3,6,9-trimethyl-7H-furo[3,2-g]chromen-7-one] | 0.501 to 1.5 µM

System: Peripheral blood mononuclear cells (PBMC)
Assay: T cell proliferation assay (anti-CD3 activated PBMC, BrdU based cell proliferation ELISA)
Settings: human PBMC, TRAM-34 (5 μM), 50 ng/ml anti-CD3, 48 hours; read-out: IC50(BrdU incorporation)
Source text: T cell proliferation assay (in analogy to Pegoraro et al., Bioorg. Med. Chem. Lett. 2009, 19, 2299)
Peripheral blood mononuclear cells (PBMC) from healthy human donors were isolated by centrifugation over a density gradient in an aqueous solution, comprising a high molecular weight polysaccharide and sodium diatrizionate, and having a density of 1.077±0.001 (Ficoll-Hypaque by Sigma-Aldrich, Germany; according to manufacturer's instructions). Purified PBMC were washed twice with PBS and resuspended in RPMI1640 culture medium (Gibco—Life Technologies) supplemented with 10% heat inactivated fetal calf serum, 1.5 mM L-glutamine, 100 U penicillin/ml, and 100 […] (all from PAA—GE Healthcare). For stimulation, PBMC were seeded at 1×10^5 cells/well, incubated with TRAM-34 (5 μM) and the test compounds for 4 h and activated with 50 ng/ml anti-CD3 (from eBioscience). After 48 hours proliferation was measured using a BrdU based cell proliferation ELISA according to the manual.

SMILES | IC50
Cc1coc2c(C)c3[nH]c(=O)c(Br)c(-c4ccccc4)c3cc12 [Example 26, 6-bromo-3,9-dimethyl-5-phenylfuro[3,2-g]quinolin-7(8H)-one] | ≤ 1.2 µM
Cc1c(-c2cccnc2)c2cc3c(C)coc3c(C)c2n(C)c1=O [Example 55, 3,6,8,9-tetramethyl-5-(pyridin-3-yl)furo[3,2-g]quinolin-7(8H)-one] | 3.1 to 15 µM
Cc1c(-c2ccccc2F)c2cc3c(C)coc3c(C)c2oc1=O [Example 5, 5-(2-fluorophenyl)-3,6,9-trimethyl-7H-furo[3,2-g]chromen-7-one] | 1.3 to 3 µM

Reference: patent publication US10399991B2, “Kv1.3 inhibitors and their medical applications” (4SC AG, priority 2015, dated 2019)
